Measured values: patent US9938495B2, “Composition comprising cryopreservation medium and stem cells obtained by slow-freezing” (FERTIPRO N.V., priority 2013, dated 2018)

Assays:
[1] = test system: CT5.3-hTERT colon cancer-associated fibroblasts; test: TGF-β-mediated growth inhibition in CT5.3-hTERT cells after cryopreservation (SRB assay, cell counter); type: cell-based; details: control group (routine culture, not cryopreserved); TGF-β 1 ng/ml for 1 week; n=3
Protocol: Immortalized CT5.3-hTERT colon cancer-associated fibroblasts have been used to evaluate cellular function following cryopreservation with two different cryopreservation media: • 1) a 10:90 (% V/V) mixture of dimethylsulfoxide (DMSO) and fetal bovine serum (FBS), as known in the art; and • 2) a propylene glycol-based DMSO-free cryopreservation medium as described in Table 1 (hereafter referred to as “PCM”).
Briefly, early passage cells were cultured in routine culture medium (Dulbecco's Modified Eagle Medium (DMEM) containing 10% FBS, antibiotics and an antifungal product) at 37° C. in a humidified atmosphere with 5% CO2. Semi-confluent cells were harvested by trypsinization and cell concentration was assessed using the trypan blue exclusion method. […]
The cells of each group were treated with recombinant TGF-β (1 ng/ml) for 1 week. At the end of the experiment, cell concentration was measured using the sulforhodamine B (SRB) assay and an automated cell counter (trypan blue exclusion), respectively. […] Protein content was assessed by the bicinchoninic acid (BCA) test and concentrations were normalized, thus allowing for equal protein load for Western blot analysis. Expression of α-SMA was evaluated using a monoclonal HRP-coupled antibody, directed against this myofibroblast marker. […]

[2] = test system: (MSC)-hTERT mesenchymal stem cells; test: Cryopreservation tests on (MSC)-hTERT mesenchymal stem cells with TGF-β treatment; type: cell-based
Description: It is noted that further cryopreservation tests on (MSC)-hTERT mesenchymal stem cells using the above-mentioned DMSO/FBS and PCM also show similar results for both cryopreservation media.

TGF-β
inhibition of cell proliferation by TGF-β [1]: 79.84+/−4.43 | effect of TGF-β on α-SMA expression [2]: not to alter α-SMA expression
